*1 amine or outer side, *2 acyl side, *3 side chain or, on linkers, in order; H or OH if unused. Where a SMILES comes first, the peptide text is derived from it. Bridges are numbered along the chain shown (N, C = ends). TATA = O=C(CC[*:1])N1CN(C(=O)CC[*:2])CN(C(=O)CC[*:3])C1
Tests used:
TSLP [1] = biological target: T1, TSLP (Homo sapiens, UniProt Q969D9); assay: Human peripheral blood mononuclear cell assay (TSLP-induced CCL17/TARC); assay type: cell-based; design: host or cells: added to human PBMCs from healthy donors; conditions: read-out: CCL17 % Inhibition @ 10 μM, […] TSLP
Protocol: Human peripheral blood mononuclear cells (PMBCs) were obtained from heparinized whole blood (healthy donors) by density gradient centrifugation using Lymphoprep (StemCell Technologies, Vancouver, BC) according to the manufacturers instructions. The PBMCs were washed twice with PBS containing 2 mM EDTA and 2% fetal calf serum (FCS) and reconstituted in RPMI containing 10% FCS and 2% PenStrep at a final concentration of 3 million cells/mL. This cell suspension (100 μL) was aliquoted into the wells of a 96-well flat bottom tissue culture plate. 5 μL of bicycle peptide or vehicle (0.1% DMSO in complete medium) was then added and mixed with 5 μL of TSLPvehicle (complete medium). […] The plate was incubated for 30 minutes are rt. 10 μL of this mixture was added to cells and the plate was incubated for 24 hours in a 10% CO2, humidified incubator at 37° C. The plate was centrifuged at 300×g for 5 min and the collected supernatants frozen at −20° C. for subsequent CCL17/TARC analysis.
CCL17/TARC was determined by MSD (MesoScale Discovery, Maryland, USA) according to the manufacturer's instructions.

TSLP [2] = biological target: T1, TSLP; assay: Human TSLP Surface Plasmon Resonance (SPR) binding assay; design: The resulting construct spCD33-6×HN-TEV-hTSLP(29-159)-Avi; 6xHN tag with TEV site (N, cleaved yes); made in house; host or cells: Expi293F cells; conditions: biotinylated human TSLP immobilized on streptavidin chip; 20° C.; steady-state or kinetic 1:1 fit; read-out: hTSLP SPR Kd

T1 sequence (Q969D9 29-159): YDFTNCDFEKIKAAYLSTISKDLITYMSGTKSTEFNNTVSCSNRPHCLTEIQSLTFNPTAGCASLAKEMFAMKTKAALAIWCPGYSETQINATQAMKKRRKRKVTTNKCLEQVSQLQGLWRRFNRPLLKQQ

SMILES | inhibition at 10 µM (TSLP [1]) [%] | Kd (TSLP [2]) [nM]
CC(C)C[C@@H]1NC(=O)[C@H](Cc2c[nH]c3ccccc23)NC(=O)[C@H](CCC(N)=O)NC(=O)[C@@H](NC(=O)[C@H](C)N)CSCCC(=O)N2CN3CN(C2)C(=O)CCSC[C@H](NC(=O)[C@H](CC(=O)O)NC(=O)[C@H](CCC(=O)O)NC1=O)C(=O)N[C@@H](Cc1c[nH]c2ccccc12)C(=O)N[C@@H](CCCNC(=N)N)C(=O)NCC(=O)N[C@@H](Cc1ccccc1)C(=O)N[C@H](C(=O)N[C@@H](CO)C(=O)N[C@@H](CO)C(=O)N[C@@H](CO)C(=O)N[C@@H](CC(=O)O)C(=O)N[C@@H](CCC(N)=O)C(=O)N[C@@H](CO)C(N)=O)CSCCC3=O [Example 59, A-(SEQ ID NO: 38)-SSSDQS] | 2 | 52
CC(C)C[C@@H]1NC(=O)[C@H](Cc2c[nH]c3ccccc23)NC(=O)[C@H]([C@@H](C)O)NC(=O)[C@@H](NC(=O)[C@H](C)N)CSCCC(=O)N2CN3CN(C2)C(=O)CCSC[C@H](NC(=O)[C@H](CC(=O)O)NC(=O)[C@H](CCC(=O)O)NC1=O)C(=O)N[C@@H](Cc1c[nH]c2ccccc12)C(=O)N[C@@H](CCCNC(=N)N)C(=O)NCC(=O)N[C@@H](Cc1ccccc1)C(=O)N[C@H](C(=O)N[C@@H](C)C(=O)N[C@@H](CC(=O)O)C(=O)N[C@@H](CO)C(N)=O)CSCCC3=O [Example 63, A-(SEQ ID NO: 49)-ADS] (H-ACTWLEDCWRGFCADS-NH2; linker 2-8-13 via TATA; N-terminus assumed) | 24 | 65
CC(C)C[C@@H]1NC(=O)[C@H](Cc2c[nH]c3ccccc23)NC(=O)[C@H](C(C)C)NC(=O)[C@@H](NC(=O)[C@@H]2CCCN2C(=O)[C@@H]2CCCN2C(=O)[C@@H](N)CO)CSCCC(=O)N2CN3CN(C2)C(=O)CCSC[C@H](NC(=O)[C@H](CC(=O)O)NC(=O)[C@H](CC(=O)O)NC1=O)C(=O)N[C@@H](Cc1c[nH]c2ccccc12)C(=O)N[C@@H](CCCNC(=N)N)C(=O)NCC(=O)N[C@@H](Cc1ccccc1)C(=O)N[C@H](C(=O)N[C@@H](C)C(N)=O)CSCCC3=O [Example 73, SPP-(SEQ ID NO: 54)-A] (H-SPPCVWLDDCWRGFCA-NH2; linker 4-10-15 via TATA; N-terminus and C-terminus assumed) | -11 | 85
CC(=O)N[C@H]1CSCCC(=O)N2CN3CN(C2)C(=O)CCSC[C@H](NC(=O)[C@H](CC(=O)O)NC(=O)[C@H](CCC(=O)O)NC(=O)[C@H](CC(C)C)NC(=O)[C@H](Cc2c[nH]c4ccccc24)NC(=O)[C@H](CCC(N)=O)NC1=O)C(=O)N[C@@H](Cc1c[nH]c2ccccc12)C(=O)N[C@@H](CCCNC(=N)N)C(=O)NCC(=O)N[C@@H](Cc1cccc(C)c1)C(=O)N[C@H](C(N)=O)CSCCC3=O [Example 74, Ac-(SEQ ID NO: 55)] | 43 | 91
CC(C)C[C@H](NC(=O)[C@H](Cc1c[nH]cn1)NC(=O)[C@@H]1CSCCC(=O)N2CN3CN(C2)C(=O)CCSC[C@H](NC(=O)[C@H](CC(=O)O)NC(=O)[C@H](CCC(=O)O)NC(=O)[C@H](CC(C)C)NC(=O)[C@H](Cc2c[nH]c4ccccc24)NC(=O)[C@H](Cc2c[nH]cn2)NC(=O)[C@@H](NC(=O)[C@H](C)N)CSCCC3=O)C(=O)N[C@@H](Cc2c[nH]c3ccccc23)C(=O)N[C@@H](CCCNC(=N)N)C(=O)NCC(=O)N[C@@H](Cc2ccccc2)C(=O)N1)C(=O)N[C@@H](CCC(=O)O)C(N)=O [Example 75, A-(SEQ ID NO: 56)-HLE] (H-ACHWLEDCWRGFCHLE-NH2; linker 2-8-13 via TATA) | -2 | 92
CC(C)C[C@@H]1NC(=O)[C@H](Cc2c[nH]c3ccccc23)NC(=O)[C@H](Cc2c[nH]c3ccccc23)NC(=O)[C@H](CO)NC(=O)[C@H](CO)NC(=O)[C@@H]2CSCCC(=O)N3CN(CN(C3)C(=O)CCSC[C@@H](C(=O)N[C@@H](C)C(N)=O)NC1=O)C(=O)CCSC[C@H](NC(=O)[C@H](C)N)C(=O)N[C@@H](CCCNC(=N)N)C(=O)N[C@@H](CC(=O)O)C(=O)N[C@@H](CC(C)C)C(=O)N[C@@H](CC(=O)O)C(=O)N1CCC[C@H]1C(=O)N[C@@H](Cc1c[nH]c3ccccc13)C(=O)N[C@@H]([C@@H](C)O)C(=O)N2 [Example 164, A-(SEQ ID NO: 122)-A] | 0 | 98
CC(C)C[C@@H]1NC(=O)[C@H](Cc2c[nH]c3ccccc23)NC(=O)[C@H](Cc2c[nH]c3ccccc23)NC(=O)[C@H](CC(N)=O)NC(=O)[C@@H]2CCCN2C(=O)[C@@H]2CSCCC(=O)N3CN(CN(C3)C(=O)CCSC[C@H](NC(=O)[C@@H]3CCCN3C(=O)[C@H](Cc3c[nH]cn3)NC(=O)[C@H](C)N)C(=O)N[C@@H](C)C(=O)N[C@@H](CC(=O)O)C(=O)N[C@@H](CC(C)C)C(=O)N[C@@H](CC(=O)O)C(=O)N3CCC[C@H]3C(=O)N[C@@H](Cc3c[nH]c4ccccc34)C(=O)N[C@@H]([C@@H](C)O)C(=O)N2)C(=O)CCSC[C@@H](C(=O)N[C@@H](C)C(N)=O)NC1=O [Example 165, AHP-(SEQ ID NO: 123)-A] (H-AHPCADLDPWTCPNWWLCA-NH2; linker 4-12-18 via TATA; N-terminus and C-terminus assumed) | 33 | 30
CC(C)C[C@@H]1NC(=O)[C@H](Cc2c[nH]c3ccccc23)NC(=O)[C@H](Cc2c[nH]c3ccccc23)NC(=O)[C@H](CO)NC(=O)[C@H](CO)NC(=O)[C@@H]2CSCCC(=O)N3CN(CN(C3)C(=O)CCSC[C@H](NC(=O)[C@@H](NC(=O)[C@H](CCC(N)=O)NC(=O)[C@@H](NC(=O)[C@@H](NC(=O)[C@H](C)NC(=O)[C@@H](N)Cc3ccc(O)cc3)[C@@H](C)O)[C@@H](C)O)C(C)C)C(=O)N[C@@H](CCCNC(=N)N)C(=O)N[C@@H](CC(=O)O)C(=O)N[C@@H](CC(C)C)C(=O)N[C@@H](CC(=O)O)C(=O)N3CCC[C@H]3C(=O)N[C@@H](Cc3c[nH]c4ccccc34)C(=O)N[C@@H]([C@@H](C)O)C(=O)N2)C(=O)CCSC[C@@H](C(=O)N[C@@H](C)C(N)=O)NC1=O [Example 171, YATTQV-(SEQ ID NO: 122)-A] | 36 | 48
CC(C)C[C@@H]1NC(=O)[C@H](Cc2c[nH]c3ccccc23)NC(=O)[C@H](Cc2c[nH]c3ccccc23)NC(=O)[C@H](CC(=O)O)NC(=O)[C@H](CO)NC(=O)[C@@H]2CSCCC(=O)N3CN(CN(C3)C(=O)CCSC[C@H](NC(=O)[C@@H]3CCCN3C(=O)[C@H](C)NC(=O)[C@@H](N)CCCNC(=N)N)C(=O)N3CCC[C@H]3C(=O)N[C@@H](CC(=O)O)C(=O)N[C@@H](CC(C)C)C(=O)N[C@@H](CC(=O)O)C(=O)N3CCC[C@H]3C(=O)N[C@@H](Cc3c[nH]c4ccccc34)C(=O)N[C@@H]([C@@H](C)O)C(=O)N2)C(=O)CCSC[C@@H](C(=O)N[C@@H](C)C(N)=O)NC1=O [Example 187, RAP-(SEQ ID NO: 136)-A] (H-RAPCPDLDPWTCSDWWLCA-NH2; linker 4-12-18 via TATA; N-terminus and C-terminus assumed) | 11 | 86

From patent US11866518B2, “Bicyclic peptide ligands specific for TSLP” (BicycleTx Limited, priority 2020, dated 2024)
